Measured values: patent US8809350B2, “Purine and pyrimidine CDK inhibitors and their use for the treatment of autoimmune diseases” (priority 2004, dated 2014)
Entries after “also recorded” stand apart in the source; their conditions may differ. Read-outs that look alike come from different tables or passages of the source. Each block holds one compound with its values, some of them ahead of it.

Columns and labels:
[1] = Water intake of NZB/W F1 lupus mice; assay type: in vivo; parameters: Water intake: unit not given beside the values; details: Example 1; for Water intake: mean ± SE
[2] = Serum transaminase (AST, ALT) in NZB/W F1 lupus mice; details: Example 1; for Serum Transaminase ALT / Serum Transaminase AST: mean ± SE
[3] = Food intake of NZB/W F1 lupus mice; assay type: in vivo; details: Example 1; for Food Intake: mean ± SE
[4] = Body weight of NZB/W F1 lupus mice; details: Example 1; for Body Weight: mean ± SE
[5] = test system: anti-dsDNA autoantibodies; test: Serum anti-DNA antibodies in NZB/W F1 lupus mice; details: Example 1; for Serum anti-DNA antibodies: mean ± SE
stimulated PBMCs = test: T cell proliferation assay (BrdU ELISA in stimulated PBMCs); assay type: cell-based
Description: PBMCs were seeded in 96 well plates at 1×10^5 cells/well, in 50 μL per well culture medium. […] All stimulants and compounds were made up to 4× final concentration in tissue culture medium and 25 μL of each drug and stimulant was then added to wells, for a final volume of 100 μL/well. For unstimulated controls, 25 μL tissue culture medium was added to wells instead of stimulant and for untreated cells, 25 μL/well tissue culture medium containing equal volume DMSO (0.1% final) was added. Three adjacent wells were treated for each stimulation/treatment condition and the mean value calculated for analysis.
In addition, PBMCs were stimulated with ConA (Concanavalin A, Sigma C5275) at concentrations ranging from 0.5 μg/mL to 100 μg/mL to identify its stimulatory effect and optimal concentration.
Cells were labelled with BrdU for two hours prior to harvesting. Plates were then centrifuged for 10 minutes at 300 g (RT), supernatant removed from wells by pipetting and cells dried for 1 hour at 60° C. FixDenat solution was added to plates (100 μL/well) and incubated for 30 minutes, then flicked to remove and anti-BrdU-POD solution added to plates (100 μL/well) and incubated for 90 minutes.

tumour cell panels = test: In-house 72 hour cytotoxicity assays on tumour cell panels; assay type: cell-based
CDK7/cyclin H = CDK7/cyclin H (Homo sapiens, UniProt P50613); test: CDK 7 and 9 assay (CTD peptide substrate); assay type: biochemical; details: in-house kinase assays; read-out: Average IC50 CDK7H
CDK7/cyclin H, sequence (P50613 whole entry): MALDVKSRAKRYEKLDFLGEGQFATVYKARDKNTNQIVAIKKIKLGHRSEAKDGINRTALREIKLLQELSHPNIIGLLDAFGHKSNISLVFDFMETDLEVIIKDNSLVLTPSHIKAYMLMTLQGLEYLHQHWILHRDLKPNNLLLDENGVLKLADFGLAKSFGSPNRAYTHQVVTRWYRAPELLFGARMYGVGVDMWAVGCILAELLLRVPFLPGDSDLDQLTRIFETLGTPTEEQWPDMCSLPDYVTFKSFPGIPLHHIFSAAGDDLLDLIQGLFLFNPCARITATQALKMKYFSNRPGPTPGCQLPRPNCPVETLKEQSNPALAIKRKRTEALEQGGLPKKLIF
CDK7/cyclin H, sequence (P51946 whole entry partner): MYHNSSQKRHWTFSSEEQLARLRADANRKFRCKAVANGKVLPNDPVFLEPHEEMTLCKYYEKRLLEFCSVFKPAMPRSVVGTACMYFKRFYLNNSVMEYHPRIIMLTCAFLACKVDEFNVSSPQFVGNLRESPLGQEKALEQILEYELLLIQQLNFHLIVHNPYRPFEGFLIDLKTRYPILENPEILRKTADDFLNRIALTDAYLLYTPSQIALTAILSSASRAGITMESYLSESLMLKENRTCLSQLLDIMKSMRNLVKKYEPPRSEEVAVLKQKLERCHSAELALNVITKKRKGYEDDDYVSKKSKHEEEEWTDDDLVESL
Description: (§1) Kinase activity was investigated by measuring the incorporation of radioactive phosphate from ATP into appropriate polypeptide substrates. Recombinant protein kinases and kinase complexes were produced or obtained commercially. Assays were performed using 96-well plates and appropriate assay buffers (typically 25 mM β-glycerophosphate, 20 mM MOPS, 5 mM EGTA, 1 mM DTT, 1 mM […], pH 7.4), into which were added 2-4 μg of active enzyme with appropriate substrates. The reactions were initiated by addition of Mg/ATP mix (15 mM MgCl2+100 μM ATP with 30-50 kBq per well of [γ-^32P]-ATP) and mixtures incubated as required at 30° C. Reactions were stopped on ice, followed by filtration through p81 filterplates or GF/C filterplates (Whatman Polyfiltronics, Kent, UK). After washing 3 times with 75 mM aq orthophosphoric acid, plates were dried, scintillant added and incorporated radioactivity measured in a scintillation counter (TopCount, Packard Instruments, Pangbourne, Berks, UK). Compounds for kinase assay were made up as 10 mM stocks in DMSO and diluted into 10% DMSO in assay buffer.
(§2) The reaction was stopped by placing the plate on ice for 2 min. Avidin (50 μg) was added to each well, and the plate was incubated at room temp for 30 min. The samples were transferred to a 96-well P81 filter plate, and washed (4×200 μL per well) with 75 mM phosphoric acid. Microscint 40 scintillation liquid (50 μL) was added to each well, and the amount of ^32P incorporation for each sample was measured using a Packard Topcount microplate scintillation counter.

CDK9/cyclin T1 = CDK9/cyclin T1 (Homo sapiens, UniProt P50750); test: CDK 7 and 9 assay (CTD peptide substrate); assay type: biochemical; details: in-house kinase assays; read-out: Average IC50 CDK9T1
CDK9/cyclin T1, sequence (P50750 whole entry): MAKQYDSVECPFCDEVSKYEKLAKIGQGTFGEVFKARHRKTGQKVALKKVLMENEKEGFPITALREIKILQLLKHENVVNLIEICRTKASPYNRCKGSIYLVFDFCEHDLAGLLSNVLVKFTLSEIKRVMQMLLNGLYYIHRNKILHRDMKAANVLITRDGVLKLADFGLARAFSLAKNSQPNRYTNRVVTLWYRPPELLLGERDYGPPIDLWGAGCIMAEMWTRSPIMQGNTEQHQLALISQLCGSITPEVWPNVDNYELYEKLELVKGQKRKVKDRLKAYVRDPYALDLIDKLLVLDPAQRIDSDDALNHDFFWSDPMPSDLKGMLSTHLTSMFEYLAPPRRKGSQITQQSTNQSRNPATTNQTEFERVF
CDK9/cyclin T1, sequence (O60563 whole entry partner): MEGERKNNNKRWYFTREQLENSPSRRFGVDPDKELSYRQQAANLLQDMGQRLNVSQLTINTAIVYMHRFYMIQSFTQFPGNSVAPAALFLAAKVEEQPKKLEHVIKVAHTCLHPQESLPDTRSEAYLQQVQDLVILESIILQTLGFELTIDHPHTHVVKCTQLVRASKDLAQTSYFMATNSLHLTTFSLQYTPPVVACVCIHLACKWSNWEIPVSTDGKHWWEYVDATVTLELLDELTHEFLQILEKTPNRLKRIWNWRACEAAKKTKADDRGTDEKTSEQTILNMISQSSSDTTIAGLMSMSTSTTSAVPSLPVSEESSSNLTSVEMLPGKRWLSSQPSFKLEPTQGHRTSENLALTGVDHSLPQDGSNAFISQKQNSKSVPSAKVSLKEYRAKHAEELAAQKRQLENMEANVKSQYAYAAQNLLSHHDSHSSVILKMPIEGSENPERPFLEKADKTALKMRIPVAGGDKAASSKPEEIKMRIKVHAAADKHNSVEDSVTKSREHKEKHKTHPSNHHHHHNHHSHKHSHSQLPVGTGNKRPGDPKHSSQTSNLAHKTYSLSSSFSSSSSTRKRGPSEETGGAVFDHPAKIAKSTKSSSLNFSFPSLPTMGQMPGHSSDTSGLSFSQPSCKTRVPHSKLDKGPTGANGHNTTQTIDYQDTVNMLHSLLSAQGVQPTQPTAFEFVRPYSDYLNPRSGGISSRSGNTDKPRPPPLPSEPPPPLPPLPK
Description: as §1, §2

AurA = biological target: T1, AurA (Homo sapiens, UniProt O14965); test: In-house kinase assay (32P incorporation); assay type: biochemical; details: in-house kinase assays
T1 sequence (O14965 1-403): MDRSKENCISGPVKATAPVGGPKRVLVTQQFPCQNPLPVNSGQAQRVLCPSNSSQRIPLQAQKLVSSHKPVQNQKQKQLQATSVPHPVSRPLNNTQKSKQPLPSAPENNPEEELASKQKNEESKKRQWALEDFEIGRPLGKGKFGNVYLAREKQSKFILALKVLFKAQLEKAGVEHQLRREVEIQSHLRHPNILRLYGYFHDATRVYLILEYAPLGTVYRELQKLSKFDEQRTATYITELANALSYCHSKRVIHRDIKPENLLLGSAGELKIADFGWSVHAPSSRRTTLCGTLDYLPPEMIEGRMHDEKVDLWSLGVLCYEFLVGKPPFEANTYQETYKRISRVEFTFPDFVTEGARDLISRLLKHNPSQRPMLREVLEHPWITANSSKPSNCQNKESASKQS
Description: as §1

AurB = AurB (Homo sapiens, UniProt Q96GD4); test: In-house kinase assay (32P incorporation); assay type: biochemical; details: in-house kinase assays
AurB, sequence (Q96GD4 whole entry): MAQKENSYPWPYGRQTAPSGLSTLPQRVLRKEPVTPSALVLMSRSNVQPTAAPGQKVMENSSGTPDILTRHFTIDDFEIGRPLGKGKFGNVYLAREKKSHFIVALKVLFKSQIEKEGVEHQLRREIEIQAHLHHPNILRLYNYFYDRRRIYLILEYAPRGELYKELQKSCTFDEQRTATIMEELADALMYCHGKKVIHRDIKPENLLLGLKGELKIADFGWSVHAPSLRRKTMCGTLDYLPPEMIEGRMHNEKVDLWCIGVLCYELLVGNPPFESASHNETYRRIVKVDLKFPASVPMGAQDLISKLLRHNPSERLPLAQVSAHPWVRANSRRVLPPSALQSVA
Description: as §1

CDK1B = CDK1B (Homo sapiens, UniProt P06493); test: In-house kinase assay (32P incorporation); assay type: biochemical; details: in-house kinase assays
CDK1B, sequence (P06493 whole entry): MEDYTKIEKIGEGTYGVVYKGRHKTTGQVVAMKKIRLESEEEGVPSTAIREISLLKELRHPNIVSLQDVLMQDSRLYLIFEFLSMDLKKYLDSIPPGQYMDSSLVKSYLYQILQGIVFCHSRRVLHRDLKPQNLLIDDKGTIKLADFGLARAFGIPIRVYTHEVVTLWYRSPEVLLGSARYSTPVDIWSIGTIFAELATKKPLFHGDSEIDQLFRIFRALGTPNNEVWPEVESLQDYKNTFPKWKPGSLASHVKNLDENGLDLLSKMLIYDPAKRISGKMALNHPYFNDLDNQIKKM
CDK1B, sequence (P14635 whole entry partner): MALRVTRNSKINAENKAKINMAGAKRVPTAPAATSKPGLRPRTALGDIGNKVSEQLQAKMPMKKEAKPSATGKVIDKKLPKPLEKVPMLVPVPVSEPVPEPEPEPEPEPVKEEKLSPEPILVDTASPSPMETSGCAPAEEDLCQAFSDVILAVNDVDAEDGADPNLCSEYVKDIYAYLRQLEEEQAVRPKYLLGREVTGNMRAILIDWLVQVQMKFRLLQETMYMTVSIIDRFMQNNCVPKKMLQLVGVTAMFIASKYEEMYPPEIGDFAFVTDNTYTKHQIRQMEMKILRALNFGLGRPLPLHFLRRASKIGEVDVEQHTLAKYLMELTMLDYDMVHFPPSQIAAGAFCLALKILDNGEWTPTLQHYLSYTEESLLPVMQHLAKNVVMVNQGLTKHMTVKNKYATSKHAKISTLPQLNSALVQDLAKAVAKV
Description: as §1

CDK6D3 = CDK6D3 (Homo sapiens, UniProt Q00534); test: In-house kinase assay (32P incorporation); assay type: biochemical; details: in-house kinase assays
CDK6D3, sequence (Q00534 whole entry): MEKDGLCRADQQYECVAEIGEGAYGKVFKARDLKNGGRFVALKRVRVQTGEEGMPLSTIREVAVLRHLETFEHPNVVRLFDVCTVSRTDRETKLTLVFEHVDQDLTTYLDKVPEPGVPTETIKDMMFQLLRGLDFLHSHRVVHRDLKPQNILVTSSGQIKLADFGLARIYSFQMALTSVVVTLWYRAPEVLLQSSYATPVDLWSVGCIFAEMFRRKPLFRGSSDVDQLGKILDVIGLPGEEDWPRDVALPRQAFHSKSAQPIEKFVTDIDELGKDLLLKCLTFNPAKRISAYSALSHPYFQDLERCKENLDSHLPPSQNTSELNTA
CDK6D3, sequence (P30281 whole entry partner): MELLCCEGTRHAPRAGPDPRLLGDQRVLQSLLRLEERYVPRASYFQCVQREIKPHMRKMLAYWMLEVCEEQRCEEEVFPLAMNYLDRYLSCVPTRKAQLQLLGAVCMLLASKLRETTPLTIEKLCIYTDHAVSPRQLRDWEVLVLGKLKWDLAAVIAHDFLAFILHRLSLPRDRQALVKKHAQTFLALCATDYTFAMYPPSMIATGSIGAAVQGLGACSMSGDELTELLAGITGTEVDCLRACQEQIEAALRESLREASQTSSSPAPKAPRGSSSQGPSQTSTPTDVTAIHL
Description: as §1

CDK4D1 = CDK4D1 (Homo sapiens, UniProt P11802); test: In-house kinase assay (32P incorporation); assay type: biochemical; details: in-house kinase assays
CDK4D1, sequence (P11802 whole entry): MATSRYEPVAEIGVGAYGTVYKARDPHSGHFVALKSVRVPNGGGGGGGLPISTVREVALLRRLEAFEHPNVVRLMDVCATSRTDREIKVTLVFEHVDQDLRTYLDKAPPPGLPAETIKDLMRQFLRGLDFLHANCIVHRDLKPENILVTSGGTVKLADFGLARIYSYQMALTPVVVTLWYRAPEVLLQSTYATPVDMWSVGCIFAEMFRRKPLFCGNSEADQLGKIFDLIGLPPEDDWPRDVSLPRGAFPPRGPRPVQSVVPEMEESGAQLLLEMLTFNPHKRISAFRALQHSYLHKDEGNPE
CDK4D1, sequence (P24385 whole entry partner): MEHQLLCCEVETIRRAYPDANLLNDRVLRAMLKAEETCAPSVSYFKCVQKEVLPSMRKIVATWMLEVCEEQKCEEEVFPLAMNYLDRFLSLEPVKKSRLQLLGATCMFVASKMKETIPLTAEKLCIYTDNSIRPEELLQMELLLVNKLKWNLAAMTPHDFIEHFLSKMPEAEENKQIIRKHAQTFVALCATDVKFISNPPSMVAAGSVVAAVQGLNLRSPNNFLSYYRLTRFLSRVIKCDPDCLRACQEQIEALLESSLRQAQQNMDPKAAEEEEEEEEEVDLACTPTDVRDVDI
Description: as §1

CDK2E = CDK2E (Homo sapiens, UniProt P24941); test: In-house kinase assay (32P incorporation); assay type: biochemical; details: in-house kinase assays
Description: as §1

[6] = 100 mg/kg daily by gavage from 2 months (preventive), age 2 months
[7] = 100 mg/kg daily by gavage from 2 months (preventive), age 2.5 months
[8] = 100 mg/kg daily by gavage from 2 months (preventive), age 3 months
[9] = 100 mg/kg daily by gavage from 2 months (preventive), age 3.5 months
[10] = 100 mg/kg daily by gavage from 2 months (preventive), age 4 months
[11] = 100 mg/kg daily by gavage from 2 months (preventive), age 4.5 months
[12] = 100 mg/kg daily by gavage from 2 months (preventive), age 5 months
[13] = 200 mg/kg daily by gavage from 2 months (preventive), age 2 months
[14] = 200 mg/kg daily by gavage from 2 months (preventive), age 2.5 months
[15] = 200 mg/kg daily by gavage from 2 months (preventive), age 3 months
[16] = 200 mg/kg daily by gavage from 2 months (preventive), age 3.5 months
[17] = 200 mg/kg daily by gavage from 2 months (preventive), age 5 months
[18] = every two weeks from 2 to 5 months
[19] = 100 mg/kg therapeutic (from 5 months)

Compound: CC[C@H](CO)Nc1nc(NCc2ccccc2)c2ncn(C(C)C)c2n1 [CYC202, 2-(1-R-hydroxymethylpropylamino)-6-benzylamino-9-isopropylpurine]
Water intake [1, 6]: 6.64 ± 0.29
Water intake [1, 7]: 5.14 ± 0.40
Water intake [1, 8]: 4.21 ± 0.28
Water intake [1, 9]: 5.00 ± 0.28
Water intake [1, 10]: 5.57 ± 0.20
Water intake [1, 11]: 4.43 ± 0.20
Water intake [1, 12]: 3.93 ± 0.22
Water intake [1, 13]: 5.31 ± 0.26
Water intake [1, 14]: 4.77 ± 0.20
Water intake [1, 15]: 4.92 ± 0.18
Water intake [1, 16]: 5.08 ± 0.21
Water intake [1, 17]: 4.23 ± 0.28
Water intake versus vehicle [1, 18]: comparable
Serum Transaminase ALT [2, 19]: 36.00 ± 2.45 IU/L
Serum Transaminase AST [2, 19]: 74.40 ± 1.72 IU/L
Serum transaminase levels (ALT and AST) ([2]; 200 mg/kg from 2 months or 100 mg/kg from 5 months, similar to control mice): not modified by treatments
Serum Transaminase ALT ([2]; 200 mg/kg preventive): 36.44 ± 4.04 IU/L
Serum Transaminase AST ([2]; 200 mg/kg preventive): 62.89 ± 4.70 IU/L
Food Intake [3, 6]: 3.69 ± 0.33
Food Intake [3, 7]: 3.77 ± 0.23
Food Intake [3, 8]: 3.92 ± 0.18
Food Intake [3, 9]: 4.08 ± 0.18
Food Intake [3, 10]: 3.92 ± 0.26
Food Intake [3, 11]: 3.85 ± 0.30
Food Intake [3, 12]: 3.85 ± 0.22
Food Intake [3, 13]: 3.54 ± 0.29
Food Intake [3, 14]: 4.08 ± 0.08
Food Intake [3, 15]: 4.00 ± 0.11
Food Intake [3, 16]: 4.08 ± 0.21
Food Intake ([3]; 200 mg/kg daily by gavage from 2 months (preventive), age 4 months): 4.00 ± 0.16
Food Intake ([3]; 200 mg/kg daily by gavage from 2 months (preventive), age 4.5 months): 4.00 ± 0.18
Food Intake [3, 17]: 3.92 ± 0.29
Food intake versus vehicle [3, 18]: comparable
Body Weight [4, 6]: 27.93 ± 0.62
Body Weight [4, 8]: 27.86 ± 0.52
Body Weight [4, 10]: 28.07 ± 0.57
Body Weight [4, 12]: 28.64 ± 0.57
Body Weight ([4]; 100 mg/kg daily by gavage from 2 months (preventive), age 6 months): 30.23 ± 0.67
Body Weight ([4]; 100 mg/kg daily by gavage from 2 months (preventive), age 7 months): 31.50 ± 0.87
Body Weight ([4]; 100 mg/kg daily by gavage from 2 months (preventive), age 8 months): 30.78 ± 0.91
Body Weight ([4]; 100 mg/kg daily by gavage from 5 months (therapeutic), age 2 months): 26.71 ± 0.74
Body Weight ([4]; 100 mg/kg daily by gavage from 5 months (therapeutic), age 3 months): 28.14 ± 0.69
Body Weight ([4]; 100 mg/kg daily by gavage from 5 months (therapeutic), age 4 months): 29.43 ± 1.01
Body Weight ([4]; 100 mg/kg daily by gavage from 5 months (therapeutic), age 5 months): 29.71 ± 0.82
Body Weight ([4]; 100 mg/kg daily by gavage from 5 months (therapeutic), age 6 months): 31.45 ± 0.96
Body Weight ([4]; 100 mg/kg daily by gavage from 5 months (therapeutic), age 7 months): 30.80 ± 1.69
Body Weight ([4]; 100 mg/kg daily by gavage from 5 months (therapeutic), age 8 months): 29.80 ± 1.46
Body Weight [4, 13]: 27.85 ± 0.72
Body Weight [4, 15]: 28.00 ± 0.68
Body Weight [4, 17]: 28.92 ± 0.35
Body Weight ([4]; 200 mg/kg daily by gavage from 2 months (preventive), age 6 months): 31.58 ± 0.43
Body Weight ([4]; 200 mg/kg daily by gavage from 2 months (preventive), age 7 months): 30.82 ± 0.35
Body Weight ([4]; 200 mg/kg daily by gavage from 2 months (preventive), age 8 months): 31.60 ± 0.52
Body weight versus other experimental groups ([4]; all CYC202 groups): No difference
Serum anti-DNA antibodies ([5]; 100 mg/kg preventive, 5 months): 4.04 ± 0.76 U/ml
Serum anti-DNA antibodies ([5]; 100 mg/kg preventive, 8 months): 76.55 ± 21.40 U/ml
Serum anti-DNA antibodies ([5]; 200 mg/kg preventive, 5 months): 24.20 ± 6.52 U/ml
Serum anti-DNA antibodies ([5]; 200 mg/kg preventive, 8 months): 73.39 ± 21.13 U/ml
Anti-DNA antibody levels versus vehicle ([5]; treated from 2 months, both doses, at 5 or 8 months of age): significantly lower than vehicle

Compound: Cc1nc(C)c(-c2ccnc(Nc3ccc(N(C)C)cc3)n2)s1 [Compound 4]
BrdU incorporation (stimulated PBMCs; Example 3, PMA/I stimulated PBMCs, all concentrations): higher than in PHA stimulated cells
BrdU incorporation (stimulated PBMCs; Example 4, PHA or ConA stimulated PBMCs, 0.25×IC50 to 4×IC50, 48 and 72 hours): BrdU signals do not reduce to background levels; also recorded: fails to achieve complete inhibition of proliferation activity
IC50 (tumour cell panels; PBMC, read-out: IC50 Used): 1 µM
IC50 (CDK7/cyclin H): 8.57 µM
IC50 (CDK9/cyclin T1): 1.88 µM
IC50 (AurA): 0.038 µM
IC50 (AurB): 0.03 µM
IC50 (CDK1B): 7.46 µM
IC50 (CDK6D3): 1.04 µM

IC50 (CDK7/cyclin H): 1.33 µM
IC50 (CDK9/cyclin T1): 0.338 µM
IC50 (AurA): > 10 µM
IC50 (AurB): > 10 µM
IC50 (CDK4D1): 19.3 µM
IC50 (CDK1B): 7.6 µM
IC50 (CDK6D3): 9.19 µM
IC50 (CDK2E): 0.126 µM
Compound: CC[C@H](Nc1nc(NCc2cccnc2)c2ncn(C(C)C)c2n1)C(C)(C)O [Compound 6]
IC50 (tumour cell panels; 72 h, read-out: IC50 Average): 10.4 µM
IC50 (tumour cell panels; rounded IC50 value used for ease of calculation in PBMC assays, read-out: IC50 Used): 10 µM
